{"source": "patent US6153640A", "about": "“Benzo[3,4]cyclobuta[1,2-c]pyrrole compounds” (Adir et Compagnie, priority 1999, dated 2000)", "key": {"[1]": {"system": "levels of serotonin, dopamine and noradrenaline in cingulate frontal cortex", "experiment": "Microdialysis experiment in the rat (frontal cortex)", "assay_type": "in vivo", "conditions": "10 mg/kg subcutaneous, baseline defined as 0%", "procedure": "Rats are anaesthetised with pentobarbital (60 mg/kg i.p.). They are placed in a Kopf stereotaxic device and the cannula guide is implanted in the cingulate frontal cortex in accordance with the coordinates described in the Paxinos and Watson atlas (1982) as follows: AP=+2.2; L=±0.6; DV=-0.2. The rats are placed in separate cages and are not used in dialysis until 5 days later. […] The probe is perfused at a flow rate of 1 μl/min. with a solution of 147.2 mM NaCl, 4 mM KCl and 2.3 mM CaCl2 adjusted to pH 7.3 with a phosphate buffer (0.1 M). Two hours after implantation, samples are collected every 20 minutes for 4 hours. Three baseline samples are taken before administration of the products to be tested. The rats are left in their individual cages for the whole of the experiment. When the experiment is finished, the rats are decapitated and the brain is removed and frozen in isopentane. Sections of a thickness of 100 μm are cut and stained with cresyl violet, which allows verification of the location of the probes. The simultaneous quantification of dopamine, norepinephrine and serotonin is carried out as follows: 20 μl of dialysis sample are diluted with 20 μl of mobile phase (NaH2 PO4 : 75 mM; EDTA: 20 μM; sodium 1-decanesulphonate: 1 mM; methanol: 17.5%; triethylamine: 0.01%; pH: 5.70) and 33 μl are analysed by HPLC with a reverse phase column thermostatically maintained at 45° C. and are quantified by means of a coulometric detector. The potential of the first electrode of the detector is set at -90 mV (reduction) and the second at +280 mV (oxidation). The mobile phase is injected with a pump at a flow rate of 2 ml/min. The sensitivity limits for dopamine, norepinephrine and serotonin are 0.55 fmole per sample. All the products of the invention are injected subcutaneously in a volume of 1.0 ml/kg. The products are dissolved in distilled water to which a few drops of lactic acid have been added if necessary."}, "male CD mice": {"system": "male CD mice", "experiment": "Test of aggressiveness in isolated mice", "assay_type": "in vivo", "conditions": "Mus musculus, ip, 0.5 h; i.p.; treatment 30 minutes before pairing; 3 minutes observation; read-out: Inhibitory Dose 50 of the number or duration of the attacks", "text": "This test allows the evaluation of the intraspecies anti-aggressive activity of a product in mice that have been kept in isolation for several months.\nThe test uses male CD mice (Charles River) weighing from 22 to 25 g when they arrive at the animal house. On their arrival, the animals are isolated in individual cages made of opaque black polycarbonate (23×14×13 cm) with a grill lid, and are housed for a prolonged period (approximately six months) in the experimentation room.\nThe selection of aggressive pairs of mice that will be used for an extended period in the study commences after the animals have been isolated for one month. Once or twice per week a mouse from another cage (intruder) is placed in the cage of a (resident) mouse and the two animals are observed to see if they attack one another (sniffing, pursuing, nicking, biting) during that trial. At the end of the trial (maximum duration 10 minutes), each mouse is isolated again in its own cage. If attacks have occurred, the same pair will be tested again in the next trial; if there have been no attacks, each mouse of that pair will be placed in the presence of another mouse in the subsequent trial. […]\nThe test takes place once a week. […] The latent period (in seconds) of the first attack and the number and total duration (in seconds) of the attacks are recorded. […]"}, "serotonin reuptake site": {"target": "T1, serotonin reuptake site (Rattus norvegicus, UniProt P31652)", "T1 construct": "The membranes are prepared from rat frontal cortex; from tissue; host or cells: rat frontal cortex membranes", "T1 sequence (P31652 whole entry)": "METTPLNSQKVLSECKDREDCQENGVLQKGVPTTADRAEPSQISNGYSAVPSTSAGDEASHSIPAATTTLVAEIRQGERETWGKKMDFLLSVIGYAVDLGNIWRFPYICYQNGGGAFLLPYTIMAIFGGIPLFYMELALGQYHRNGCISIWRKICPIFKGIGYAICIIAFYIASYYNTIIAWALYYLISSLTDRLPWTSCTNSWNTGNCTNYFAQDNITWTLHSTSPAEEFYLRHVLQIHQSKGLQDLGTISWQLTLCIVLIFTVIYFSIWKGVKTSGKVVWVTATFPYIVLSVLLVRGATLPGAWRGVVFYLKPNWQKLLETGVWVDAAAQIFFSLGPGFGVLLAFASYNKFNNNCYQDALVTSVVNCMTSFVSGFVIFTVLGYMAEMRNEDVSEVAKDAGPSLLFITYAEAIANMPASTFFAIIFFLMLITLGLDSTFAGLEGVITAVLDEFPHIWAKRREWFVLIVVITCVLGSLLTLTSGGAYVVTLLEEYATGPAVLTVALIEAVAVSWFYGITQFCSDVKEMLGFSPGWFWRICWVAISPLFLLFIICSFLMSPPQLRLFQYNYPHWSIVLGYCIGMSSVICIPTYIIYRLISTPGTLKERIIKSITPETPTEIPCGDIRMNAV", "experiment": "Affinity for serotonin reuptake sites ([3H]-paroxetine competition binding)", "conditions": "[3H]-paroxetine 1.0 nM, rat frontal cortex membranes, 2 hours at 25° C., pH 7.4; read-out: pKi (-log Ki), affinity for serotonin reuptake sites (converted)", "procedure": "The incubation buffer contains […] TRIS-HCl (pH 7.4), 120 mM NaCl and 5 mM KCl. The non-specific binding is determined using 10 μM citalopram. At the end of the incubation, the incubation medium is filtered and washed three times with 5 ml of cooled buffer. The radioactivity retained on the filters is determined by liquid scintillation counting. The binding isotherms are analysed by non-linear regression to determine the IC50 values. Those values are converted into a dissociation constant (Ki) using the Cheng-Prusoff equation: […]\nThe results are expressed in pKi (-log Ki)."}}, "data": [{"molecule": "c1ccc2c(c1)[C@@H]1CNC[C@]21COc1ccc2c(c1)OCO2", "note": "(relative stereo) [Example 1, cis-3a-[(3,4-Methylenedioxyphenoxy)methyl]-2,3,3a,7b-tetrahydro-1H-benzo[3,4]cyclobuta[1,2-c]pyrrole]", "values": [{"measurement": "increase in the level of dopamine, maximum % of the effect compared with the baseline level", "setting": "[1]", "result": "54.8%±6.4"}, {"measurement": "increase in the level of noradrenaline, maximum % of the effect compared with the baseline level", "setting": "[1]", "result": "96.4%±7.8"}, {"measurement": "increase in the level of serotonin, maximum % of the effect compared with the baseline level", "setting": "[1]", "result": "226.3%±20.1"}, {"measurement": "ED50", "setting": "male CD mice", "result": "< 5", "unit": "mg/kg"}, {"measurement": "Ki", "setting": "serotonin reuptake site", "result": 12.6, "unit": "nM"}]}]}
